Measured values: US10189798B2, “Antimicrobial compounds, methods of making the same and articles comprising them” (MEDICAL TECHNOLOGY RESEARCH INC, priority 2014, dated 2019)

Assays:
[1] = test system: Staphylococcus aureus ATCC6538; assay: Zone of inhibition (ZOI) assay; type: cell-based; details: for antimicrobial activity, qualitative: ZOI assay, S. aureus ATCC6538
Experimental: The antimicrobial activity of the antimicrobial silver s-triazine compounds was verified by standard zone of inhibition (ZOI) assay known to those skilled in the art. Briefly, in this assay, samples were placed on plates with proprietary agar formula (similar to Mueller Hinton Agar (MHA)) that were inoculated with bacteria and incubated at 37° C. overnight. If antimicrobial activity in the sample was present, it formed a clear zone around the edges. As negative control, the samples without the silver active compound were used. For primary screening of antimicrobial activity, the gram positive bacteria Staphylococcus aureus ATCC6538 was employed in the assay. To examine broad spectrum antimicrobial activity, various different types of organisms including gram negative Pseudomonas aeruginosa ATCC9027, Methicillin-Resistance Staphylococcus aureus (MRSA) and Vancomycin-Resistant Enterococci (VRE) could be employed. In investigating the broad spectrum activity, the ZOI assay is performed slightly differently. Instead of laying the samples on plates individually inoculated with different types of bacteria, the bacterial inoculums are streaked as parallel lines on one plate. After streaking the inoculum linearly, the samples are deposited as a continuous bead string in perpendicular direction to the streak lines. Evidence of antimicrobial activity in the sample is seen in the form of interruptions on both sides of the edges of the sample string.

[2] = Discoloration on direct sunlight exposure; type: physicochemical; details: for direct sunlight exposure withstood before any sign of discoloration: undiluted aqueous suspension, ~5500 ppm silver
Experimental: Silver-PDT powder (˜0.027 g) was transferred to the gel and hand-mixed to uniformity with a spatula to obtain clear to hazy gel. […] For DMCA, the tube was kept at ˜25° C. overnight for reaction completion. […] Considering that the amount of silver in the undiluted suspensions was ˜5500 ppm, the discoloration resistance can be considered extraordinary. In contrast, the undiluted suspension of Ag-PDT withstood 0.5 h of sunlight exposure before discoloration was visible. […] A suspension of Ag-MIC was prepared according to Example 13. […] A 2″×2″ piece of cotton gauze was soaked in the clear solution, blotted with paper towel to remove excess and dried at 55° C. for 0.25 to 0.5 h. In the same clear solution prepared separately, a filter paper strip was immersed, shaken and then dried at 55° C. for 0.25 h-0.5 h. Both substrates with silver-MIC were exposed to direct sunlight. […] Thus, in both instances following substrate impregnation, Ag-MIC still maintained robust light discoloration resistance. […] On a clean glass slide, a small volume (˜0.25 ml) was spread with a transfer pipet and left in an oven at 55° C. to dry for 0.5 h. The theoretical amount of silver in the dried coating was estimated at ˜2700 ppm. […] Such coating composition could be useful in providing antimicrobial surfaces. […] Similar sized piece of each dressing was pouched in foil and steam sterilized. After cooling to room temperature the samples were examined for discoloration. None was observed. […] Even after 4 h of direct sunlight exposure, no discoloration of the Ag-PDT impregnated paper was observed. The approximate theoretical amount of silver in the impregnated paper strip was ˜8700 ppm.

[3] = Discoloration on table lamp light exposure; type: physicochemical; details: for time without discoloration under table lamp light: clear solution with ammonium hydroxide, ~5000 ppm silver, lamp at 12″
Experimental: Stock solutions (0.1M) of monosodium salts of DMCA, EIC and MIC were prepared. […] To accelerate anion exchange between sodium and silver cations, heating of liquids was carried out in microwave between ˜50° to 55° C. The tube contents were cooled and then to each tube neat ammonium hydroxide (0.1 ml) was added which caused the suspensions to clear for all three compounds. […] The theoretical content of silver in the clear solutions was ˜5000 ppm. To a 100 ml PP cup with stir bar, deionized water was added (13.2 ml).

[4] = Discoloration on heat exposure (55° C. / steam sterilization); type: physicochemical; details: 550 ppm silver
Experimental: The sterilization of any samples (devices or compositions) comprising antimicrobial silver s-triazine compounds was carried out by steam sterilization. By subjecting test samples to steam sterilization, one can ascertain the ability of the antimicrobial silver s-triazine compounds to withstand thermal stresses. […] Thus, the test samples experienced nearly 3.5 h of hostile temperature condition. […] Silver-PDT powder (˜0.027 g) was transferred to the gel and hand-mixed to uniformity with a spatula to obtain clear to hazy gel. […] Similar sized piece of each dressing was pouched in foil and steam sterilized. After cooling to room temperature the samples were examined for discoloration. None was observed.

[5] = water, 25° C.
[6] = Alginate sheet, Example 17, ~4500 ppm silver

| direct sunlight exposure withstood before any sign of discoloration [2] [h] | discoloration as suspension temperature increased during photo-exposure ([2]; diluted suspension ~1350 ppm silver, temperature ~50° C.) | direct sunlight exposure without discoloration ([2]; impregnated thin paper strip, ~8700 ppm silver) [h] | direct sunlight exposure required before signs of discoloration ([2]; suspension diluted with deionized water, ~1350 ppm silver, PP tube) | gel discoloration at 55° C. ([4]; carboxymethyl cellulose gel, short term exposure) | Compound | Zone width [1, 6] [mm] | Zone width ([1]; Cotton gauze, Example 14) [mm] | Zone width ([1]; Filter paper, Example 14) [mm] | Zone width ([1]; Gel, Example 15, 550 ppm silver) [mm] | antimicrobial activity, qualitative [1] | direct sunlight exposure without discoloration ([2]; impregnated cotton gauze, Example 14) [h] | direct sunlight exposure after which faint cream color registered ([2]; impregnated filter paper strip, Example 14) [h] | gel discoloration under table lamp light ([3]; Laponite gel, 550 ppm silver, overnight) | time without discoloration under table lamp light [3] [h] | gel change at 55° C. ([4]; Laponite gel, 4 weeks) | aqueous solubility [5] [µg/mL] | gel discoloration in direct sunlight ([2]; carboxymethyl cellulose gel, 550 ppm silver, PP tubes) |
| --- | --- | --- | --- | --- | --- | --- | --- | --- | --- | --- | --- | --- | --- | --- | --- | --- | --- |
| 0.5 | no discoloration was seen | > 4 | over 4 h | did not show any gel discoloration | O=c1nc(-c2ccccc2)[nH]c(=O)[n-]1.[Ag+] [Ag-PDT] | 5.5 |  |  |  | strong activity |  |  |  |  |  |  | no discoloration of gel was seen for up to an hour |
| 1.5 |  |  |  |  | CCn1c(=O)[n-]c(=O)[nH]c1=O.[Ag+] [Ag-EIC] | 8.5 |  |  |  | strong activity |  |  |  | 96 |  | 16.5 |  |

| Compound | direct sunlight exposure withstood before any sign of discoloration [2] [h] | discoloration as suspension temperature increased during photo-exposure ([2]; diluted suspension ~1350 ppm silver, temperature ~50° C.) | direct sunlight exposure without discoloration ([2]; impregnated thin paper strip, ~8700 ppm silver) [h] | direct sunlight exposure required before signs of discoloration ([2]; suspension diluted with deionized water, ~1350 ppm silver, PP tube) | gel discoloration at 55° C. ([4]; carboxymethyl cellulose gel, short term exposure) | Zone width [1, 6] [mm] | Zone width ([1]; Cotton gauze, Example 14) [mm] | Zone width ([1]; Filter paper, Example 14) [mm] | Zone width ([1]; Gel, Example 15, 550 ppm silver) [mm] | antimicrobial activity, qualitative [1] | direct sunlight exposure without discoloration ([2]; impregnated cotton gauze, Example 14) [h] | direct sunlight exposure after which faint cream color registered ([2]; impregnated filter paper strip, Example 14) [h] | gel discoloration under table lamp light ([3]; Laponite gel, 550 ppm silver, overnight) | time without discoloration under table lamp light [3] [h] | gel change at 55° C. ([4]; Laponite gel, 4 weeks) | aqueous solubility [5] [µg/mL] | gel discoloration in direct sunlight ([2]; carboxymethyl cellulose gel, 550 ppm silver, PP tubes) |
| --- | --- | --- | --- | --- | --- | --- | --- | --- | --- | --- | --- | --- | --- | --- | --- | --- | --- |
| Cn1c(=O)[n-]c(=O)[nH]c1=O.[Ag+] [Ag-MIC] | 1.5 |  |  |  |  | 9.5 | 5.5 | 8.0 | 2.5 | strong activity | > 3 | 1.5 | did not discolor | 72 | practically unchanged | 48 |  |
